From paper PMC10252594 (Cancers, 2023)

Experiments:
[1] = system: DU-145; design: method as in PMID 34681843; conditions: DU-145, AR negative, three days, MTS; cited from earlier work
[2] = system: LAPC-4 xenografts; assay: Fatty acid determination (GC-FID) in LAPC-4 xenograft experiment; type: in vivo, mice; conditions: 10 mg/kg PO
Description: […] The fatty acid profile was next determined by gas chromatography (GC), coupled with a flame ionization detector (FID), using phosphatidylcholine C21:0 (Avanti Polar Lipids) as an internal standard. The GC model 5890 was from Agilent Technologies (Mississauga, ON, Canada). The capillary column used was a HP-88 (100 m × 0.25 mm, […], Agilent Technologies), and the carrier gas was helium at 1.5 mL/min. A total of 56 fatty acids were identified according to their retention time, using fatty acid mixtures as standards.

[3] = LAPC-4 tumor, 28 days (RM-581 group per Table S1)
[4] = LAPC-4 tumor, 28 days, Table S1

C#C[C@]1(O)CC[C@H]2[C@@H]3CCc4cc(OC)c(N5CCN(C(=O)[C@@H]6CCCN6C(=O)c6ccc7ccccc7n6)CC5)cc4[C@H]3CC[C@@]21C [RM-581]
IC50 [1]: 4.4 µM
S-FA, liver ([2]; 28 days): 12.5 mg/g
S-FA, plasma ([2]; 28 days): 1.10 µg/mL
S-FA, plasma, % vs CTL ([2]; 28 days): +2.8%
S-FA, tumor ([2]; 28 days): 8.15 mg/g
T-FA, liver ([2]; 28 days): 34.5 mg/g
T-FA, liver, % vs CTL ([2]; 28 days): +19.8%
T-FA, plasma ([2]; 28 days): 3.71 µg/mL
T-FA, plasma, % vs CTL ([2]; 28 days): +1.6%
T-FA, tumor ([2]; 28 days): 24.5 mg/g
U-FA, liver ([2]; 28 days): 21.9 mg/g
U-FA, plasma ([2]; 28 days): 2.59 µg/mL
U-FA, plasma, % vs CTL ([2]; 28 days): +1.6%
U-FA, tumor ([2]; 28 days): 16.0 mg/g
Adrenic acid-1 (7c10c13c16c) 22:4, % vs CTL ([2]; LAPC-4 tumor, 28 days): +8.6%
Adrenic acid-1 (7c10c13c16c) 22:4, FA RM-581 ([2]; LAPC-4 tumor, 28 days): 0.380 mg/g
Adrenic acid-2 (4c7c10c13c16c) 22:5, % vs CTL ([2]; LAPC-4 tumor, 28 days): −12%
Adrenic acid-2 (4c7c10c13c16c) 22:5, FA RM-581 ([2]; LAPC-4 tumor, 28 days): 0.260 mg/g
Alpha-linolenic acid (9c12c15c) 18:3, FA RM-581 ([2]; LAPC-4 tumor, 28 days): 0.230 mg/g
Arachidonic (5c8c11c14c) 20:4, % vs CTL ([2]; LAPC-4 tumor, 28 days): −2.1%
Arachidonic (5c8c11c14c) 20:4, FA RM-581 ([2]; LAPC-4 tumor, 28 days): 2.150 mg/g
Cervonic acid 22:6, % vs CTL ([2]; LAPC-4 tumor, 28 days): 0%
Cervonic acid 22:6, FA RM-581 ([2]; LAPC-4 tumor, 28 days): 0.530 mg/g
Dihomo-γ-linolenic acid (8c11c14c) 20:3, FA RM-581 ([2]; LAPC-4 tumor, 28 days): 0.580 mg/g
Dimethoxyhexadecanoic acid 16:0, % vs CTL ([2]; LAPC-4 tumor, 28 days): 0%
Dimethoxyhexadecanoic acid 16:0, FA RM-581 ([2]; LAPC-4 tumor, 28 days): 0.170 mg/g
Docosapentaenoic acid (7c10c13c16c19c) 22:5, % vs CTL ([2]; LAPC-4 tumor, 28 days): +17%
Docosapentaenoic acid (7c10c13c16c19c) 22:5, FA RM-581 ([2]; LAPC-4 tumor, 28 days): 0.140 mg/g
Lignoceric acid 24:0, % vs CTL ([2]; LAPC-4 tumor, 28 days): +23%
Lignoceric acid 24:0, FA RM-581 ([2]; LAPC-4 tumor, 28 days): 0.160 mg/g
Linoleic acid (9c12c) 18:2, FA RM-581 ([2]; LAPC-4 tumor, 28 days): 4.435 mg/g
Myristic acid 14:0, FA RM-581 ([2]; LAPC-4 tumor, 28 days): 0.275 mg/g
Nervonic acid (15c) 24:1, % vs CTL ([2]; LAPC-4 tumor, 28 days): +18%
Nervonic acid (15c) 24:1, FA RM-581 ([2]; LAPC-4 tumor, 28 days): 0.130 mg/g
Oleic acid (9c) 18:1, FA RM-581 ([2]; LAPC-4 tumor, 28 days): 4.920 mg/g
Palmitic acid 16:0, FA RM-581 ([2]; LAPC-4 tumor, 28 days): 5.095 mg/g
Palmitoleic acid (9c) 16:1, FA RM-581 ([2]; LAPC-4 tumor, 28 days): 1.035 mg/g
Stearic acid 18:0, % vs CTL ([2]; LAPC-4 tumor, 28 days): +3.5%
Stearic acid 18:0, FA RM-581 ([2]; LAPC-4 tumor, 28 days): 2.355 mg/g
Vaccenic acid (11c) 18:1, % vs CTL ([2]; LAPC-4 tumor, 28 days): +5.3%
Vaccenic acid (11c) 18:1, FA RM-581 ([2]; LAPC-4 tumor, 28 days): 0.690 mg/g
Adrenic acid-1 (7c10c13c16c) 22:4, % of Total FA [2, 3]: 1.54%
Adrenic acid-2 (4c7c10c13c16c) 22:5, % of Total FA [2, 3]: 1.07%
Alpha-linolenic acid (9c12c15c) 18:3, % of Total FA [2, 3]: 0.94%
Arachidonic (5c8c11c14c) 20:4, % of Total FA [2, 3]: 8.77%
Cervonic acid 22:6, % of Total FA [2, 3]: 2.18%
Dihomo-γ-linolenic acid (8c11c14c) 20:3, % of Total FA [2, 3]: 2.35%
Dimethoxyhexadecanoic acid 16:0, % of Total FA [2, 3]: 0.68%
Docosapentaenoic acid (7c10c13c16c19c) 22:5, % of Total FA [2, 3]: 0.57%
Lignoceric acid 24:0, % of Total FA [2, 3]: 0.65%
Linoleic acid (9c12c) 18:2, % of Total FA [2, 3]: 18.1%
Myristic acid 14:0, % of Total FA [2, 3]: 1.12%
Nervonic acid (15c) 24:1, % of Total FA [2, 3]: 0.52%
Oleic acid (9c) 18:1, % of Total FA [2, 3]: 20.1%
Palmitic acid 16:0, % of Total FA [2, 3]: 20.8%
Palmitoleic acid (9c) 16:1, % of Total FA [2, 3]: 4.23%
Stearic acid 18:0, % of Total FA [2, 3]: 9.61%
Vaccenic acid (11c) 18:1, % of Total FA [2, 3]: 2.82%
Arachidic acid 20:0, FA RM-581 [2, 4]: 0.05 mg/g
Arachidic acid 20:0, FA RM-581 % of total [2, 4]: 0.20%
Behenic acid 22:0, FA RM-581 [2, 4]: 0.09 mg/g
Behenic acid 22:0, FA RM-581 % of total [2, 4]: 0.35%
Caproic acid 10:0, FA RM-581 [2, 4]: 0 mg/g
Caproic acid 10:0, FA RM-581 % of total [2, 4]: 0.02%
Caprylic acid 8:0, FA RM-581 [2, 4]: 0 mg/g
Caprylic acid 8:0, FA RM-581 % of total [2, 4]: 0%
Dimethoxyoctadecanoic acid 18:0, FA RM-581 [2, 4]: 0.09 mg/g
Dimethoxyoctadecanoic acid 18:0, FA RM-581 % of total [2, 4]: 0.38%
Dimethoxyoctadecenoic acid (9c) w9 18:1, FA RM-581 [2, 4]: 0.07 mg/g
